Several values for one entry are separate records, joined by “and”; a condition that tells them apart may be missing. Identical values can stand only once. Like-named read-outs stand apart in the source and are kept apart here.
Experiments:
[1] = test system: testosterone-induced benign prostatic hyperplasia; type: in vivo, male Wistar rats; conditions: BPH rats; for Ratio (b/a* 100): prostate weight/body weight
Experimental: (§1) After 6-week-old male Wistar rats (Samtako, Korea) were obtained and acclimated for one week, six animals constituted each test group when each animal weighed 340-350 g.
(§2) As for the test configuration, the animals were divided into groups without testicle removal and groups undergoing […] recovery after testicle removal, and each group was subcutaneously injected with 5 mg/kg testosterone to induce benign prostatic hyperplasia for weeks (BPH induced group). Test groups were constructed by oral administration of Aucklandiae Radix extracts and costunolide at different concentrations (mg/kg) once a day, seven times a week, for 8 weeks.
After the completion of the test, the rats of all the test groups were euthanized, and then prostate tissue and main organs were extracted, and weights and volumes thereof were measured using an electronic scale for animal weights and a caliper (mm^3) (Table 2).

[2] = test system: prostate tissue; assay: Prostate pathology biopsy (H&E) in BPH model rats; type: in vivo, male Wistar rats; conditions: oral once a day, 8 weeks
Experimental: as §1
as §2, with “weeks. Positive control groups were used by oral administration of finasteride, which has been used as a medicine for benign prostatic hyperplasia.” for “weeks.”
After the completion of the test, the prostate tissue extracted from each group was fixed with 10% neutral formalin and stored. The tissue of each group was processed into paraffin blocks, and slides for microscopic inspection of tissue were manufactured and stained with hematoxylin & eosin (H&E). The microscopic inspection of tissue was conducted through a microscope (Olympus, Tokyo, Japan) at a magnification of X200.

[3] = test system: RAW 264.7 cells; assay: Inflammatory cytokine (IL-1β, IL-6, TNF-α) levels by ELISA in LPS-activated macrophages; type: cell-based; conditions: 200 ng LPS, various concentrations, 18 hours, vs cells treated with only LPS (FIG. 2)
Experimental: (§3) RAW 264.7 cells, which were macrophages used in the present tests, were available from American Type Culture Collection (ATCC). These cells were cultured in CO2 incubator (Formascientific, Inc.) using DMEM containing 10% fetal bovine serum (FBS). The differentiation of cells was observed through microscopic observation, and then the cells were used in the tests.
RAW 264.7 cells were treated with 200 ng/ ? LPS while simultaneously treated with various concentrations (μg/ ? ) of Aucklandiae Radix extracts (EtOH 30% and 70%) and costunolide, and then the cells were cultured in a 37° C., 5% CO2 incubator for 18 hours. After 18 hours, ELISA analysis kits (eBioScience 88-7013, 88-7064 USA, BD 555268 USA) were used to check the levels of the inflammatory cytokines IL-1β, IL-6, and TNF-α in the supernatant of each group.

[4] = test system: RAW 264.7 cells; assay: Nitric oxide (NO) change in LPS-activated macrophages (Griess reagent); type: cell-based; conditions: 200 ng LPS, various concentrations, 18 hours, vs LPS alone; dose-dependent (FIG. 1)
Experimental: as §3
To induce the activation of macrophages, RAW 264.7 cells were treated with 200 ng/ ? lipopolysaccharide (LPS) while simultaneously treated with various concentrations (μg/ ? ) of a 100% methanol extract of Aucklandiae Radix (expressed by MeOH 100%), a 30% ethanol extract of Aucklandiae Radix (expressed by EtOH 30%), and a 70% ethanol extract of Aucklandiae Radix (expressed by EtOH 70%), and costunolide, and then the cells were cultured in a 37° C., 5% CO2 incubator for 18 hours. After 18 hours, 100 ? of the supernatant was transferred to a new plate for each group, and 100 ? of a solution, in which Griess reagent A (2% sulfanilamide in 5% phosphoric acid) and Greiss reagent B (0.2% naphthylethylenediamine dihydrochloride) were mixed at a rate of 1:1, was added thereto. Thereafter, the absorbance was measured at 540 nm.

[5] = type: in vivo, male Wistar rats
Experimental: as §1
as §2, with “weeks. Positive control groups were used by oral administration of finasteride, which has been used as a medicine for benign prostatic hyperplasia.” for “weeks.”
For analysis of biochemical markers in serum, blood was obtained through the abdominal vein from rats of all the groups at necropsy. The blood was coagulated for about 30 minutes, and then centrifuged for 5 minutes at 10,000 rpm to separate serum. After serum separation, a biochemistry analyzer (AU480, Beckman Coulter, USA) was used to check liver function (AST, ALP), lipoprotein (total cholesterol (T-CHO)), HDL cholesterol (HDL-C), LDL cholesterol (LDL-C)), and kidney function ([…]) levels (Table 3).

[6] = positive control group, oral, dose not given
[7] = oral 0.075 mg/kg once a day, 8 weeks

In the case of `CC(C)(C)NC(=O)[C@H]1CC[C@H]2[C@@H]3CC[C@H]4NC(=O)C=C[C@]4(C)[C@H]3CC[C@]12C` [Fina, finasteride], the “Body Weight (a)” value [1, 6] is reported as 379 g and 415 g, the “Prostate Weight (b)” value [1, 6] is reported as 1.23 g and 1.42 g and the Prostate volume [1, 6] is reported as 2,322 mm^3 and 4,255 mm^3. The Speen weight [1, 6] was 0.60 g and 0.70 g and the “Ratio (b/a* 100)” value [1, 6] was 0.29 and 0.34.
In the case of `C=C1C(=O)O[C@@H]2/C=C(\C)CC/C=C(\C)CC[C@@H]12` [costunolide], the “endothelial thicknesses of prostate tissue (H&E, X200)” value ([2]; compared with the benign prostatic hyperplasia induced group (FIGS. 4 and 5)) is reported as “significantly reduced”, the “alveolar glands of prostate tissue (H&E, X200)” value ([2]; similar to the normal control group (FIGS. 4 and 5)) is reported as “maintained in a round shape without atrophy” and the “prostate weights and volumes” value ([1]; costunolide administration groups, printed as 0.075 μg/, compared with finasteride administration groups (FIG. 3)) is reported as “significant reduction effect”. The “Body Weight (a)” value [1, 7] was 433 g, the Liver weight [1, 7] was 10.72 g and the “Prostate Weight (b)” value [1, 7] was 1.40 g. The Prostate volume [1, 7] was 4,126 mm^3, the Speen weight [1, 7] was 0.62 g and the “Ratio (b/a* 100)” value [1, 7] was 0.32. For the same compound, the “secretion levels of the inflammatory cytokines (IL-1β, IL-6, TNF-α)” value [3] was “decreases”, the “amount of NO” value [4] was “significantly decreased” and the “serum liver function, lipoprotein and kidney function levels (hepatoxicity and kidney toxicity)” value ([5]; BPH rats, oral once a day, 8 weeks, all administered groups) was “no significant changes”. It also gave an ALP ([5]; rat, in vivo, po, 0.075 mg/kg) of 61.17 U/L, an AST ([5]; rat, in vivo, po, 0.075 mg/kg) of 78.33 U/L and a CRE ([5]; rat, in vivo, po, 0.075 mg/kg) of 0.27 mg/dL. The HDL ([5]; rat, in vivo, po, 0.075 mg/kg) was 51.50 mg/dL, the LDL ([5]; rat, in vivo, po, 0.075 mg/kg) was 13.17 mg/dL and the T-CHO ([5]; rat, in vivo, po, 0.075 mg/kg) was 79.67 mg/dL.

From patent publication US12144840B2, “Method for treating or preventing benign prostatic hyperplasia” (priority 2017, dated 2024)
